From ChEMBL document CHEMBL5728748 (2021)

test: TarO Biochemical Enzymatic Assay: The TarO biochemical enzymatic assay is a liquid chromatography-mass spectroscopy (LC-MS) based end point assay that measures C55-P-P-GlcNAc (LIPID III) production. The TarO biochemical enzymatic assay was performed in a 384-well microtiter plate (Labcyte) with a reaction volume of 20 μl. The reaction mix contained 0.1 μgs/μl of TarO membrane preparation derived from MRSA COL (lysostaphin/lysozyme treated, centrifuged at 40K rpm, and re-suspended in 50 mM Tris pH 7.5, 10 mM MgCl2), 1500 μM UDP-GlcNAc, x 75 μM C55-P substrates in 83 mM Tris pH 8.0, 6.7 mM MgCl2, 6 mM CHAPS, and 8.3% DMSO buffer. The enzyme reactions were quenched by extraction in 40 μl of 1-pentanol containing 0.04 μM […] C55-PP-GlcNAc, which was used as an internal standard. A 10 μl volume of the quenched reaction mixture (pH≈3) from each well was injected onto a reversed-phase column (C4, 5 m, 2.1×50 mm, Thermo Scientific Biobacis-4) and eluted using a NH4Ac/H2O/MeOH gradient (solvent A: 10 mM NH4Ac in water, pH 5.6; solvent B: NH4Ac (1 M)-Isopropanol (1:90, v/v, pH 5.6). The HPLC conditions were as follows: 15% solvent B for 15 seconds followed by a gradient to 90% solvent B in 90 seconds; then solvent B was kept at 95% for 10 seconds followed by a gradient to 8% solvent B in 0.1 minute. The column was then equilibrated at 15% B for 1 minute before the next injection. The flow rate was kept constant at 600 μl/minute. Mass spectrometric detection was carried out in the negative-ion mode using selected reaction monitoring (SRM). Typical mass spectrometric conditions were as follows: heated capillary temperature, 210° C.; spray voltage, 2500 V; desolvation gas (N2), 40 l/h; auxiliary gas (N2), 35 l/h. Selected ion current (SIC) chromatograms of C55-PP-GlcNAc and internal standard 15C C55-PP-GlcNAc were plotted and integrated using LCQuan incorporated in Xcalibur software (ThermoFinnigan). The linearity of C55-PP-GlcNAc concentration versus mass spectrometric signal (AC55-PP-GlcNAc/A15C-C55-PP-GlcNAc) was determined with purified C55-PP-GlcNAc. The IC50 values were calculated using the nonlinear regression analysis (sigmoidal dose response fit allowing for a variable slope) of percent inhibition data with minimum and maximum values set to 0 and 100 percent.

SMILES	IC50
C[C@H]1[C@@H](c2cc(C(F)(F)F)cc(C(F)(F)F)c2)OC(=O)N1C(=O)NCc1cncc2ccccc12	30 nM
C[C@H]1[C@@H](c2cc(F)cc(C(F)(F)F)c2)OC(=O)N1C(=O)NCc1cncc2ccccc12	10 nM
O=C(NCc1cncc2ccccc12)N1C(=O)O[C@H](c2cc(F)cc(C(F)(F)F)c2)[C@@H]1CO	210 nM
C[C@H]1[C@@H](c2cc(C(F)(F)F)cc(C(F)(F)F)c2)OC(=O)N1C(=O)Cc1cccc2ccccc12	130 nM
C[C@H]1[C@@H](c2cccc(C(F)(F)F)c2)OC(=O)N1C(=O)NCc1cncc2ccccc12	160 nM
C[C@H]1[C@@H](c2cc(C(F)(F)F)cc(C(F)(F)F)c2)OC(=O)N1C(=O)CCc1cccc2ccccc12	10 nM
C[C@H]1[C@@H](c2cccc(C(F)(F)F)c2)OC(=O)N1C(=O)NCc1cncc2cccnc12	130 nM
C[C@H]1[C@@H](c2cc(C(F)(F)F)cc(C(F)(F)F)c2)OC(=O)N1C(=O)CCc1cncc2ccccc12	10 nM
COc1cc(C(F)(F)F)cc([C@H]2OC(=O)N(C(=O)NCc3cncc4cccnc34)[C@H]2CO)n1	880 nM
C[C@H]1[C@@H](c2cc(C(F)(F)F)cc(C(F)(F)F)c2)OC(=O)N1C(=O)NCc1cncc2cccnc12	10 nM
O=C(NCc1cncc2cccnc12)N1C(=O)O[C@H](c2cc(C(F)(F)F)cc(C(F)(F)F)c2)[C@@H]1CO	140 nM
C[C@H]1[C@@H](c2cc(F)cc(C(F)(F)F)c2)OC(=O)N1C(=O)NCc1cnc2sccn12	77000 nM
O=C(NCc1cccc2cncnc12)N1C(=O)O[C@H](c2cc(C(F)(F)F)cc(C(F)(F)F)c2)[C@@H]1CO	80 nM
C[C@H]1[C@@H](c2cc(F)cc(C(F)(F)F)c2)OC(=O)N1C(=O)NCc1cccc(N(C)C)c1	40 nM
C[C@H]1[C@@H](c2cc(F)cc(C(F)(F)F)c2)OC(=O)N1C(=O)NCc1cccc2cc[nH]c12	60 nM
COc1cncc(CNC(=O)N2C(=O)O[C@H](c3cc(C(F)(F)F)cc(C(F)(F)F)c3)[C@@H]2CO)c1OC	30 nM
C[C@H]1[C@@H](c2cc(F)cc(Br)c2)OC(=O)N1C(=O)NCc1cncc2ccccc12	240 nM
C[C@H]1[C@@H](c2cc(F)cc(C(F)(F)F)c2)OC(=O)N1C(=O)NCc1ccccc1OC(F)F	20 nM
C[C@H]1[C@@H](c2cc(F)cc(C(F)(F)F)c2)OC(=O)N1C(=O)NCc1ccccc1C(F)(F)F	30 nM
COc1cc([C@H]2OC(=O)N(C(=O)NCc3cccc4nccnc34)[C@H]2CO)cc(C(F)(F)F)c1	450 nM
Cc1cc(C)cc([C@H]2OC(=O)N(C(=O)CCc3cncc4ccccc34)[C@H]2C)c1	1070 nM
COc1ccncc1CNC(=O)N1C(=O)O[C@H](c2cc(C(F)(F)F)cc(C(F)(F)F)c2)[C@@H]1CO	200 nM
C[C@H]1[C@@H](c2cc(C(F)(F)F)cc(C(F)(F)F)c2)OC(=O)N1C(=O)NCC1CCCc2ccccc21 (stereo not given in full)	160 nM
C[C@H]1[C@@H](c2cccc(OC(F)(F)F)c2)OC(=O)N1C(=O)CCc1cccc2ccccc12	40 nM
C[C@H]1[C@@H](c2cc(C(F)(F)F)cc(C(F)(F)F)c2)OC(=O)N1C(=O)NCc1cccc2ccnn12	10 nM

SMILES	IC50
C[C@H]1[C@@H](c2cc(C(F)(F)F)cc(C(F)(F)F)c2)OC(=O)N1C(=O)NCc1cccc2c1OCCO2	10 nM
C[C@H]1[C@@H](c2cc(C(F)(F)F)cc(C(F)(F)F)c2)OC(=O)N1C(=O)NCc1ncccc1Br	260 nM
COc1cc([C@H]2OC(=O)N(C(=O)NCc3cncc4cccnc34)[C@H]2CO)cc(C(F)(F)F)c1	1240 nM
C[C@H]1[C@@H](c2cc(C(F)(F)F)cc(C(F)(F)F)c2)OC(=O)N1C(=O)NCc1cnc2c(c1)CCC2	1870 nM
C[C@H]1[C@@H](c2cc(F)cc(C(F)(F)F)c2)OC(=O)N1C(=O)N(O)Cc1cccc2ccccc12	7760 nM
Cc1cc([C@H]2OC(=O)N(C(=O)CCc3cccc4cnccc34)[C@H]2C)cc(C(F)(F)F)c1	250 nM
C[C@H]1[C@@H](c2cc(C(F)(F)F)cc(C(F)(F)F)c2)OC(=O)N1C(=O)NCc1nccc2ccoc12	150 nM
Cc1ccccc1CNC(=O)N1C(=O)O[C@H](c2cc(F)cc(C(F)(F)F)c2)[C@@H]1C	140 nM
C[C@H]1[C@@H](c2cc(F)cc(C(F)(F)F)c2)OC(=O)N1C(=O)NCc1cccc2cncnc12	340 nM
C[C@H]1[C@@H](c2cc(F)cc(C(F)(F)F)c2)OC(=O)N1C(=O)NCc1ccccc1-n1cccc1	450 nM
C[C@H]1[C@@H](c2cc(F)cc(C(F)(F)F)c2)OC(=O)N1C(=O)NCc1cccc2c1C(=O)NC2	1690 nM
CCOc1cc([C@H]2OC(=O)N(C(=O)NCc3cccc4cncnc34)[C@H]2C)nc(C(F)(F)F)c1	10 nM
C[C@H]1[C@@H](c2cccc(OC(F)(F)F)c2)OC(=O)N1C(=O)CCc1cncc2ccccc12	140 nM
C[C@H]1[C@@H](c2cccc(F)c2)OC(=O)N1C(=O)CCc1cncc2ccccc12	3000 nM
C[C@H]1[C@@H](c2cc(C(F)(F)F)cc(C(F)(F)F)c2)OC(=O)N1C(=O)NCc1cccnc1N1CCOCC1	3610 nM
COc1ccccc1CNC(=O)N1C(=O)O[C@H](c2cc(F)cc(C(F)(F)F)c2)[C@@H]1C	30 nM
C[C@H]1[C@@H](c2cc(F)cc(C(F)(F)F)c2)OC(=O)N1C(=O)NCc1cccc2c1OCCO2	50 nM
C[C@H]1[C@@H](c2cc(C(F)(F)F)cc(C(F)(F)F)c2)OC(=O)N1C(=O)CCc1cccc2sccc12	10 nM
Cc1cccnc1CCNC(=O)N1C(=O)O[C@H](c2cc(C(F)(F)F)cc(C(F)(F)F)c2)[C@@H]1C	1780 nM
C[C@H]1[C@@H](c2cc(F)cc(C3CC3)c2)OC(=O)N1C(=O)NCc1cncc2ccccc12	240 nM
Cc1nc(C(C)C)sc1CNC(=O)N1C(=O)O[C@H](c2cc(F)cc(C(F)(F)F)c2)[C@@H]1C	160 nM
C[C@H]1[C@@H](c2cc(F)cc(C(F)(F)F)c2)OC(=O)N1C(=O)CCc1cncc2ccccc12	80 nM
COc1cccnc1CNC(=O)N1C(=O)O[C@H](c2cc(C(F)(F)F)cc(C(F)(F)F)c2)[C@@H]1C	910 nM
O=C(CCc1cncc2ccccc12)N1CC(c2cc(C(F)(F)F)cc(C(F)(F)F)c2)OC1=O (stereo not given)	420 nM
C[C@H]1[C@@H](c2cc(F)cc(C(F)(F)F)c2)OC(=O)N1C(=O)NCc1cccc2nccnc12	190 nM

SMILES	IC50
C[C@H]1[C@@H](c2cc(F)cc(C(F)(F)F)c2)OC(=O)N1C(=O)NCc1ccnc2ccccc12	200 nM
C[C@H]1[C@@H](c2cc(F)cc(C(F)(F)F)c2)OC(=O)N1C(=O)NCc1nccc2sccc12	120 nM
C[C@H]1[C@@H](c2cc(F)cc(C(F)(F)F)c2)OC(=O)N1C(=O)NCc1ccccc1CN(C)C	690 nM
Cc1cccnc1CNC(=O)N1C(=O)O[C@H](c2cc(C(F)(F)F)cc(C(F)(F)F)c2)[C@@H]1C	440 nM
C[C@H]1[C@@H](c2cc(C(F)(F)F)cc(C(F)(F)F)c2)OC(=O)N1C(=O)NCc1cccc2nccnc12	50 nM
C[C@H]1[C@@H](c2cc(F)c(F)c(F)c2)OC(=O)N1C(=O)CCc1cncc2ccccc12	1810 nM
Cc1nc(C)c(CNC(=O)N2C(=O)O[C@H](c3cc(F)cc(C(F)(F)F)c3)[C@@H]2C)s1	2650 nM
C[C@H]1[C@@H](c2cc(F)cc(C(F)(F)F)c2)OC(=O)N1C(=O)NCc1ccccc1Cl	170 nM
CCOc1ccccc1CNC(=O)N1C(=O)O[C@H](c2cc(F)cc(C(F)(F)F)c2)[C@@H]1C	100 nM
C[C@H]1[C@@H](c2cc(C(F)(F)F)cc(C(F)(F)F)c2)OC(=O)N1C(=O)CCc1cccc2ncccc12	250 nM
C[C@H]1[C@@H](c2cccc(C(F)F)c2)OC(=O)N1C(=O)NCc1cncc2ccccc12	490 nM
COc1cc([C@H]2OC(=O)N(C(=O)NCc3cccc4cncnc34)[C@H]2CO)cc(C(F)(F)F)c1	870 nM
C[C@H]1[C@@H](c2cc(F)cc(C(F)(F)F)c2)OC(=O)N1C(=O)NCc1cccc2ccccc12	20 nM
COc1ccccc1CNC(=O)N1C(=O)O[C@H](c2cccc(C(F)(F)F)c2)[C@@H]1C	220 nM
Cc1cnc(F)c(CNC(=O)N2C(=O)O[C@H](c3cc(C(F)(F)F)cc(C(F)(F)F)c3)[C@@H]2C)c1	610 nM
C=CCOc1cc([C@H]2OC(=O)N(C(=O)NCc3cncc4ccccc34)[C@H]2C)nc(C(F)(F)F)c1	60 nM
C[C@H]1[C@@H](c2cc(F)cc(C(F)(F)F)c2)OC(=O)N1C(=O)NCc1cccc2cn[nH]c12	1420 nM
C[C@H]1[C@@H](c2cccc(C(C)(F)F)c2)OC(=O)N1C(=O)NCc1cncc2ccccc12	250 nM
C[C@H]1[C@@H](c2cc(F)cc(C(F)(F)F)c2)OC(=O)N1C(=O)NCc1ccnc2cccnc12	540 nM
C[C@H]1[C@@H](c2cc(C(F)(F)F)cc(C(F)(F)F)c2)OC(=O)N1C(=O)CCc1cccc2ccncc12	410 nM
COc1cc([C@H]2OC(=O)N(C(=O)NCc3cncc4ccccc34)[C@H]2CO)cc(C(F)(F)F)c1	200 nM
C[C@H]1[C@@H](c2cc(F)cc(C(F)(F)F)c2)OC(=O)N1C(=O)NCc1ccccc1[N+](=O)[O-]	10 nM
C[C@H]1[C@@H](c2cc(F)cc(C(F)(F)F)c2)OC(=O)N1C(=O)NCc1cccc2ncccc12	850 nM
C[C@H]1[C@@H](c2cc(F)cc(C(F)(F)F)c2)OC(=O)N1C(=O)NCc1ccccc1S(C)(=O)=O	2970 nM
Cc1cc(F)cc([C@H]2OC(=O)N(C(=O)CCc3cncc4ccccc34)[C@H]2C)c1	1880 nM
